Measurements published in ChEMBL document CHEMBL4342498, “Design and Discovery of an Orally Efficacious Spiroindolinone-Based Tankyrase Inhibitor for the Treatment of Colon Cancer” (J Med Chem, 2020).
≈ marks a conversion by molar mass, not a printed value.

Tests used:
[1] = Permeability of the compound measured after 4 hrs by PAMPA; format: ADME; settings: read-out: permeability
[2] = Half life in ICR mouse at 50 mg/kg, po; format: ADME, organism-based; settings: in vivo
[3] = Cmax in ICR mouse at 50 mg/kg, po; format: ADME, organism-based; design: dose 50 mg/kg, route oral; settings: in vivo
[4] = AUC (infinity) in ICR mouse at 50 mg/kg, ip; format: ADME, organism-based; design: dose 50 mg/kg, route intraperitoneal, time infinity; settings: in vivo
[5] = AUC (infinity) in ICR mouse at 50 mg/kg, po; format: ADME, organism-based; design: dose 50 mg/kg, time infinity, route oral; settings: in vivo
[6] = Efflux ratio of permeability across basolateral to apical side over apical to basolateral side in MDCK2 cells; format: ADME, cell-based, Canis lupus familiaris, MDCK-II; settings: dog, mdck
[7] = Stability in rat liver microsomes assessed as parent compound remaining at 1 uM measured after 30 mins in presence of NADPH by LC-MS/MS analysis; format: ADME, Microsome; settings: read-out: Stability
[8] = Stability in human liver microsomes assessed as parent compound remaining at 1 uM measured after 60 mins in presence of NADPH by LC-MS/MS analysis; format: ADME, Microsome; settings: read-out: Stability
[9] = Half life in ICR mouse at 50 mg/kg, ip; format: ADME, organism-based; settings: in vivo
Tankyrase 1/2 = target: T1, Tankyrase 1/2 (Homo sapiens, UniProt Q9H2K2+O95271)
T1 sequence (Q9H2K2 whole entry): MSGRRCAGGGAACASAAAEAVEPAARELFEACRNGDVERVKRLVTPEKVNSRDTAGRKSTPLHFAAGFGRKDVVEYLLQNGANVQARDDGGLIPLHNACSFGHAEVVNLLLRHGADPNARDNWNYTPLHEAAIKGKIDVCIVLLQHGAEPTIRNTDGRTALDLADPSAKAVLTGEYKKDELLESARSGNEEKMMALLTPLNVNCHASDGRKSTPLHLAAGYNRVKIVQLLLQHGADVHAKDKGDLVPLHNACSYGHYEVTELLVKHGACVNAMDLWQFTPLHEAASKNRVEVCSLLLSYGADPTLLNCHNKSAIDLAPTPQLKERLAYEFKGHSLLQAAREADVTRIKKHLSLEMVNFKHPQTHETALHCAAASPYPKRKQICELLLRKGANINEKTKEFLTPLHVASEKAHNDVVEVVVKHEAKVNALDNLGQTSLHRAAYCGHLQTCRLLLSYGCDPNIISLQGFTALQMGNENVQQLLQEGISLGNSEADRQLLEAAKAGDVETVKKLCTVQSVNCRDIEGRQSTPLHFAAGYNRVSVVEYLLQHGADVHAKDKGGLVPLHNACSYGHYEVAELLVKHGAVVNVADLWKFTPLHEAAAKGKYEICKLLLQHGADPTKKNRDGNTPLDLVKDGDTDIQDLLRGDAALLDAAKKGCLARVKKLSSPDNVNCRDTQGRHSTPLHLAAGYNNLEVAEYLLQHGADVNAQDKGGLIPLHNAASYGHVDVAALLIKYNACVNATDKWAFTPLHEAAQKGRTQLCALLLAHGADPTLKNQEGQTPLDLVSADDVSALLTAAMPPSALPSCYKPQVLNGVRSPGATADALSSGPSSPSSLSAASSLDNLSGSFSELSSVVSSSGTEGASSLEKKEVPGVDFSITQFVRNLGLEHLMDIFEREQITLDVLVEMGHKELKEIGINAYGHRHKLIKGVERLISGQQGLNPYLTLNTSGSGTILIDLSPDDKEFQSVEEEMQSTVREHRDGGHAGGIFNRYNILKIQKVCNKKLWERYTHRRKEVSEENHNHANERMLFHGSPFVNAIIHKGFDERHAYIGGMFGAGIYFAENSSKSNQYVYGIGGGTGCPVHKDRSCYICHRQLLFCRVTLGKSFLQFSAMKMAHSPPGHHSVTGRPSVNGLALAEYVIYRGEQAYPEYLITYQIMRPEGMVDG
T1 sequence (O95271 whole entry): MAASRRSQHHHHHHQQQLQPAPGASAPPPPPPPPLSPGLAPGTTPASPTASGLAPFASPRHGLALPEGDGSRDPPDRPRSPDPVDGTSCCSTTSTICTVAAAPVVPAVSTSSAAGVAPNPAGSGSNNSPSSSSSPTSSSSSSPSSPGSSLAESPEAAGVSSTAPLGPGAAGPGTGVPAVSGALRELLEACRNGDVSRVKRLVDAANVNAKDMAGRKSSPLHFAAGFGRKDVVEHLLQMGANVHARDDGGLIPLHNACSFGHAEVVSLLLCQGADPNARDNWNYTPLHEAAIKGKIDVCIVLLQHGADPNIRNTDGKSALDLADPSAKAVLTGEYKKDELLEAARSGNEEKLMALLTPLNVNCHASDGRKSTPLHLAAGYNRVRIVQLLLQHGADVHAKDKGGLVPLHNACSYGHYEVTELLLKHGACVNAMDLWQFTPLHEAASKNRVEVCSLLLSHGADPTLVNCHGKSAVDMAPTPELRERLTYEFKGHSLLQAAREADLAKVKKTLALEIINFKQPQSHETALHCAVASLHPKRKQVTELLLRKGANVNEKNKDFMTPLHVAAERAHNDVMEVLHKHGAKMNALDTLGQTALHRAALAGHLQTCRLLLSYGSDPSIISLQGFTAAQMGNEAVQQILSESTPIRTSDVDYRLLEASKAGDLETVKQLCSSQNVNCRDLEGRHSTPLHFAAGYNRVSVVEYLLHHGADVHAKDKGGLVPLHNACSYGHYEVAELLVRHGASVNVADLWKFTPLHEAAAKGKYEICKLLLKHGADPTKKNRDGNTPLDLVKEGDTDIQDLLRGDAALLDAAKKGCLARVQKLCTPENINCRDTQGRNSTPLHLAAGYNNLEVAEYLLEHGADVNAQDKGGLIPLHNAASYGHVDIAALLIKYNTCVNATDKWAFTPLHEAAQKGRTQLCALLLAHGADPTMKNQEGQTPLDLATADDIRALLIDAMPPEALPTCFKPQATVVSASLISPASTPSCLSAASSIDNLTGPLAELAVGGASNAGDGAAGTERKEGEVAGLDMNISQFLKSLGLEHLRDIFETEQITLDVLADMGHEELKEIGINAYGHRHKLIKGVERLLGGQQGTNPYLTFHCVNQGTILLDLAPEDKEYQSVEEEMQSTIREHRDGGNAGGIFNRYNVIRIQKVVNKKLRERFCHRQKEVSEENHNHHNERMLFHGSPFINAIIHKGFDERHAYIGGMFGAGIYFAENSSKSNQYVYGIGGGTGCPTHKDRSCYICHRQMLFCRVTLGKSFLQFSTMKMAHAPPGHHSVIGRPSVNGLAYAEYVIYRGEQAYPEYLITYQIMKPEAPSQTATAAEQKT
Description: Inhibition of TNKS/TNKS2 (unknown origin) expressed in human DLD1 cells assessed as reduction in Wnt-signaling measured after 24 hrs by TCF-luciferase reporter gene assay

[10] = Protein binding in human plasma assessed as unbound fraction at 1 uM measured after 24 hrs by LC-MS/MS analysis; format: ADME, cell-free
[11] = Tmax in ICR mouse at 50 mg/kg, ip; format: ADME, organism-based; settings: in vivo
[12] = target: T2, Poly [ADP-ribose] polymerase tankyrase-1 (Homo sapiens, UniProt O95271)
T2 sequence (O95271 whole entry): T1 sequence (O95271 whole entry)
Description: Inhibition of recombinant human N-terminal TEV cleavage site-fused/FLAG-poly his-tagged TNKS SAM-PARP domain (1024 to 1327 residues) expressed in Escherichia coli assessed as reduction in auto-PARylation preincubated for 10 mins followed by biotinylated-NAD+ addition and measured after 45 mins by ELISA

physchem = settings: phosphate buffered saline, pH 7.4

Papp at 4 h [1] [×10⁻⁶ cm/s]	half-life [2] [h]	Cmax [3] [µM]	AUC(0-inf) [4] [µM·h]	AUC(0-inf) [5] [µM·h]	efflux ratio [6]	remaining at 0.5 h, 1 µM [7] [%]	remaining at 1 h, 1 µM [8] [%]	half-life [9] [h]	IC50 (Tankyrase 1/2) [nM]	fraction unbound at 24 h, 1 µM [10]	Tmax [11] [h]	IC50 [12] [nM]	solubility at 1 h, 200 µM (physchem) [µg/mL]	SMILES
12.8	4	21.2	207	77	3.1	80.2	30.5 to 54.5	2.5	8.4	0.004	0.5	7.7	94.5 (≈ 191 µM)	CN1CCN(c2cc(F)c3c(c2)N(C)C(=O)C32CCN(c3nc4c(c(=O)[nH]3)CCCN4C)CC2)CC1
12.4	1.8	121	607	594	0.9	57.3	28.7 to 55.9	1.9	3.1	0.003	1	36.1	34.1 (≈ 66.8 µM)	C[C@@H]1CN(c2cc(F)c3c(c2)N(C)C(=O)C32CCN(c3nc4c(c(=O)[nH]3)CCCN4C)CC2)C[C@H](C)O1
